Data on five compounds can be found in patent US10258603B2 (priority 2014, dated 2019).

The structures appear in SMILES notation.

As usually defined, the IC50 is the concentration that inhibits the measured activity by half. A higher IC50 goes with weaker potency in that assay.

The assay addresses T1, BRD4(BD1) (Homo sapiens, UniProt O60885).
T1 construct: 42-168 was cloned, expressed, and purified to; His; made in house
The experiment in a line: BRD4 AlphaLisa Binding Assay. The source says: IC50 Measurements for Inhibitors Using BRD4 AlphaLisa Binding Assay
A general note: Alpha assays give light when donor and acceptor beads are brought close together.
`COC[C@@H](NC(=O)c1cn(C)c(=O)c2[nH]ccc12)c1ccccc1` [Example 95] gave an IC50 of 11 µM.

Compound `Cn1cc(C(=O)NCCN2CCOCC2)c2cc[nH]c2c1=O` [Example 8, 6-methyl-N-(2-morpholinoethyl)-7-oxo-1H-pyrrolo[2,3-c]pyridine-4-carboxamide] showed an IC50 of 4.9 µM.

`Cn1cc(C(=O)NCc2ccc(S(C)(=O)=O)cc2)c2cc[nH]c2c1=O` [Example 92] registered an IC50 of 8.4 µM.

For `CN(CC1CCN(Cc2ccccc2Cl)CC1)C(=O)c1cn(C)c(=O)c2[nH]ccc12` [Example 198], the IC50 is 1.1 µM.

In the case of `Cn1cc(C(=O)N[C@H](C(=O)O)c2ccccc2)c2cc[nH]c2c1=O` [Example 96], the IC50 stood at 5 µM.
